Test results reported in PubChem BioAssay (NCI).
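Growth conditions: 96-well plates. Treatment: test compound, 48 hours, 5 concentrations. Analysis: linear interpolation between bracketing concentrations; unreached endpoints set to highest concentration. TGI: total growth inhibition.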

Assays:
Assay in all cases: inhibition of tumour cell growth, NCI panel, 48 h
HT29 colon = tested on: HT29 colon
OVCAR-5 ovarian = tested on: OVCAR-5 ovarian
ACHN renal = tested on: ACHN renal
UO-31 renal = tested on: UO-31 renal
OVCAR-4 ovarian = tested on: OVCAR-4 ovarian
SK-OV-3 ovarian = tested on: SK-OV-3 ovarian
HCT-116 colon = tested on: HCT-116 colon
HOP-18 NSCLC = tested on: HOP-18 NSCLC
NCI-H522 lung = tested on: NCI-H522 lung
KM12 colon = tested on: KM12 colon
LOX IMVI melanoma = tested on: LOX IMVI melanoma
SW-620 colon = tested on: SW-620 colon
M14 melanoma = tested on: M14 melanoma
A549 NSCLC = tested on: A549 NSCLC
HOP-92 NSCLC = tested on: HOP-92 NSCLC
HOP-62 NSCLC = tested on: HOP-62 NSCLC
UACC-62 melanoma = tested on: UACC-62 melanoma
HCC-2998 colon = tested on: HCC-2998 colon
SF-539 CNS = tested on: SF-539 CNS
MOLT-4 leukemia = tested on: MOLT-4 leukemia

Measured: TGI

COc1ccc(C[C@H](N)C(=O)N2C[C@H](CO)C[C@H](n3cnc4c(N(C)C)ncnc43)C2)cc1
> 100 µM: all assays above

COc1ccc(C[C@H](N)C(=O)N2C[C@H](CO)C[C@H](n3ccc(=O)[nH]c3=O)C2)cc1
> 100 µM: all assays above
